{"source": "patent US20260027073A1", "about": "“USE OF SMALL-MOLECULE COMPOUND HAVING NAPHTHYLAMINE STRUCTURE” (HANGZHOU PHECDAMED CO., LTD., priority 2023, published 2026)", "key": {"[1]": {"test_system": "HGPS-MSC", "test": "Senescence of HGPS patient derived mesenchymal stem cells", "type": "cell-based, human", "conditions": "10 μM", "procedure": "Mesenchymal stem cells HGPS-MSC differentiated from pluripotent stem cells (iPSC) of patients with Hutchinson-Gilford Progeria Syndrome (HGPS) were taken for culture, and the experiment was divided into three groups, namely, young cells cultured for 7 generations, labeled as Con-Y; senescent cells cultured for 12 generations, labeled as Con-O; and the administration group to which 10 μM of TJ01-013 was added during the process of culture, similarly cultured up to the 12th generation, labeled as Con-O+TJ01-013; the drug administration group to which 10 μM positive drug Ionafarnib was added during the process of culture, similarly cultured up to the 12th generation, and labeled as Con-O+ Ionafarnib; after the end of the treatment, all the cells were placed under the microscope to observe the morphology of the cells, and the proportion of SA-β-gal+ cells was counted. The levels of DNA damage marker γ-H2AX and heterochromatin modification H3K9me3 after TJ01-013 treatment and Ionafarnib treatment were detected by immunofluorescence technique (the specific procedure was described previously)."}, "[2]": {"test_system": "cisplatin-induced hearing impairment model in mice", "test": "Cisplatin-induced hearing damage", "type": "in vivo, C57 mice", "procedure": "Select 8-week-old C57 male mice weighing 22-25 g, according to the previous studies and the previous laboratory exploration, mice were induced to have hearing damage by 4 mg/kg of cisplatin, and a certain amount of cisplatin was dissolved in 0.9% saline of the model control group, and then intraperitoneally injected into the mice for four consecutive days, with the volume of the intraperitoneal injection of 5 ml/kg, and then intraperitoneally injected into the mice for four consecutive days with the volume of 0.9% saline for recovery and alleviation, the injection was prescribed at the same time point every day, and no treatment was done on the 9th day to conduct hearing test or dissect the mice for subsequent experiments. […]\nThe mice were sacrificed by neck dissection, and the cochlea was removed from mice by neck dissection, and processed under the anatomical microscope to expose the round window and the oval window, the cochlear apex was perforate, and the round window, the oval window and the cochlear apex were perfused with 4% PFA solution, and then the whole cochlea was put into 4% PFA solution for fixation, and was shaken overnight at 4° C. […] Finally, photographs were taken using a fluorescence microscope."}, "[3]": {"test_system": "MRL/lpr mice", "test": "Lupus nephritis in MRL/lpr mice", "type": "in vivo", "procedure": "The 10-week-old female MRL/lpr mice were fed in an SPF environment with a light-dark cycle of 12 h and the temperature maintained at 24-26° C. The mice were randomly divided into three groups according to their body weights, namely, the model group (Control, n=8, 0.5% CMC-Na by oral gavage), TJ01-013 10 mg/kg treatment group (10 mg/kg, n=8, 10 mg/kg TJ01-013 by oral gavage), TJ01-013 30 mg/kg treatment group (30 mg/kg, n=8, 30 mg/kg TJ01-013 by oral gavage), the animals were adaptively fed for one week, and were administered every day starting from 11th week, and the animals were monitored for the concentration of randomized urinary proteins and urinary creatinine of the mice in each group every 2 weeks starting from week 11, the mouse urine protein to creatinine concentration ratio (uPCR) was calculated. The animals were administered for a total of 10 weeks, and blood was collected from the orbits at the end of administration and serum was collected. Serum creatinine, urea nitrogen, serum ANA and anti-dsDNA concentrations were detected.\nUrine protein and urinary creatinine levels were detected by utilizing Caumas Brilliant Blue staining.\nSerum creatinine and urea nitrogen were detected by biochemical analyzer.\nSerum ANA and anti-dsDNA levels were detected by ELISA.\nKidney tissue was placed in a homogenizer and minced into pieces thoroughly with clean scissors; 400 μl of lysate was added to the homogenizer, homogenized and then placed on ice, and the grinding was repeated several times on ice until the kidney tissue was ground as thoroughly as possible; after 30 min of lysis, the lysate was transferred to a 1.5 ml centrifuge tube with a pipette, and then centrifuged for 10 min at 12,000 rpm under the condition of 4° C., and the supernatant was taken and stored at −20° C. Inflammatory factors TNFα and IL-6 in kidney tissue proteins were detected using ELISA."}}, "data": [{"smiles": "O=C(O)C[S+]([O-])c1cc(NS(=O)(=O)c2ccc(Br)cc2)c2ccccc2c1O", "note": "(stereo not drawn) [I-1]", "values": [{"measurement": "percentage of SA-β-gal+ cells", "setting": "[1]; 12th generation, vs Con-O, FIG. 54", "value": "significantly decreased"}, {"measurement": "level of DNA damage marker γ-H2AX", "setting": "[1]; FIG. 55", "value": "significantly reduced"}, {"measurement": "expression level of heterochromatin-modified H3K9me3", "setting": "[1]; FIG. 56", "value": "restored its expression level to some extent"}, {"measurement": "hearing thresholds (ABR)", "setting": "[2]; 4, 8, 16, 24, 32 kHz, 30 mg/kg gavage, 8 days, FIG. 46", "value": "significantly decreased"}, {"measurement": "loss of hair cells (Myo7a, cochlear basement membrane)", "setting": "[2]; apical, middle, base gyrus, FIG. 47", "value": "significantly reduced the loss of hair cells"}, {"measurement": "urine protein to creatinine concentration ratio (uPCR)", "setting": "[3]; 10 weeks of administration, 10 and 30 mg/kg groups, FIG. 74", "value": "significantly lower"}, {"measurement": "serum creatinine level", "setting": "[3]; vs model group, FIG. 75", "value": "significantly decreased"}, {"measurement": "serum urea nitrogen level", "setting": "[3]; vs model group, FIG. 75", "value": "significantly decreased"}, {"measurement": "serum ANA level", "setting": "[3]; vs model group, FIG. 76", "value": "significantly decreased"}, {"measurement": "serum dsDNA level", "setting": "[3]; vs model group, FIG. 77", "value": "significantly decreased"}, {"measurement": "IL-6 level in kidney tissues", "setting": "[3]; vs model group, FIG. 78", "value": "significantly reduced"}, {"measurement": "TNFα level in kidney tissues", "setting": "[3]; vs model group, FIG. 78", "value": "significantly reduced"}]}]}
